Experimental data published in patent US20110033904A1, “METHOD FOR PREPARING ORTHODIHYDROXYISOFLAVONES USING A BIOTRANSFORMATION SYSTEM” (priority 2008, published 2011).

Tested on: C57BL/6 mouse melanocyte cells (MeI-Ab cells)
Experiment: Melanin production inhibitory effects using MeI-Ab cells (Dooley's method)
Type: cell-based
Conditions: substances added during 3 days from day 2 of culture, absorbance at 400 nm, hydroquinone 100 ppm
Method: The melanin production inhibitory effects of the ODIs obtained in Examples 1 and 2 were measured using MeI-Ab cells.
First, C57BL/6 mouse melanocyte cells (MeI-Ab cells) (Dooley, T. P. et al, Skin pharmacol, 7, pp 188-200) were cultured in a DMEM (Dulbeccos modified Eagles media) medium containing 10% fetal bovine serum, 100 nM 2-O-tetradecanoylphorbol-13-acetate and 1 nM cholera toxin in conditions of 37° C. and 5% CO2. The cultured MeI-Ab cells were detached by 0.25% trypsin-EDTA and cultured in a 24-well plate at a concentration of 10^5 cells/well. During the culture period, 100 ppm hydroquinone and each of the ODIs obtained in Examples 1 and 2 were added to the cells continuously during 3 days from 2 days after the start of the culture. Herein, the hydroquinone was used as a positive control group. The culture broth was collected and washed, and the cells were lysed with 1N sodium hydroxide and measured for absorbance at 400 nm.
Melanin production inhibition (%)=100−(absorbance of each test substance/absorbance of control group×100) [Math Figure 1]

O=c1c(-c2ccc(O)cc2)coc2cc(O)c(O)cc12 [7,6,4′-trihydroxyisoflavone]
Melanin production inhibition (%): 38.8%

O=c1c(-c2ccc(O)cc2)coc2c(O)c(O)ccc12 [7,8,4′-trihydroxyisoflavone]
Melanin production inhibition (%): 39.8%

O=c1c(-c2ccc(O)c(O)c2)coc2cc(O)ccc12 [7,3′,4′-trihydroxyisoflavone]
Melanin production inhibition (%): 38.7%

Oc1ccc(O)cc1 [Hydroquinone, hydroquinone, reference compound]
inhibition at 100 ppm (Mus musculus, Melanocyte): 41.1%

O=c1c(-c2ccc(O)c(O)c2)coc2cc(O)cc(O)c12 [7,5,3′,4′-tetrahydroxyisoflavone]
Melanin production inhibition (%): 40.8%
